Source: patent EP4768482A1, “THIOBENZIMIDAZOLE DERIVATIVE OR PHARMACEUTICALLY ACCEPTABLE SALT THEREOF, AND USE THEREOF” (Korea University Research and Business Foundation, priority 2023, dated 2025)

What follows are molecules tested on MDA-MB-231 (assay: MTS cell viability assay, MDA-MB-231 breast cancer cell line). Conditions: Homo sapiens, MDA-MB-231 cell line, 0-10 µM, 72 hours.
Assay type: cell-based
Description: MDA-MB-231 (Cell seeding numbers: 0.8(M231) x 10^4 cells/wells (confluency ≧ 25%), which is a human triple-negative breast cancer (TNBC) cell line, and JIMT-1 (Cell seeding numbers: 0.8(JIMT) x 10^4 cells/wells (confluency ≧ 25%)), which is a HER2 positive breast cancer (HER2+ BC) cell line, were used in the experiment.
The above cell lines were cultured in an environment of 5% CO2 and 37°C in a Dulbecco's modified Eagle's medium (DMEM) including a 10% fetal bovine serum (FBS), a streptomycin-penicillin (100 U/mL), and a Fungizone (0.625 µg/mL), respectively.
The human breast cancer cell lines MDA-MB-231 and JIMT-1 were treated with thiobenzimidazole derivatives of Formulas 1-1 to 1-10 at concentrations of 0, 0.5, 1, and 5 µM, respectively, for 72 hours, and then cell viability was measured using the MTS assay technique. In the MTS assay, cells were attached to a 96-well plate for 24 hours, treated with the thiobenzimidazole derivative for 72 hours, developed with MTS (3-(4,5-dimethylthiazol-2-yl)-5-(3-carboxymethoxyphenyl)-2-(4-sulfophenyl)-2H-tetrazolium) for 4 hours, and then absorbance was measured at 490 nm using a Spectramax Plus384 microplate analyzer. The results are illustrated in FIG. 1, and as illustrated in the drawing, it was confirmed that the thiobenzimidazole derivatives of Formula 1-1 to 1-10 inhibited cell viability in a concentration-dependent manner in the human breast cancer cell lines MDA-MB-231 and JIMT-1.
The MDA-MB-231 and JIMT-1 cell lines were treated with thiobenzimidazole derivatives (Formula 1-1 to 1-4) of the disclosure at concentrations of 0, 0.01, 0.05, 0.1, 0.25, 0.5, 1, 5, and 10 µM, respectively, and then cell viability and IC50 values therefrom were confirmed. The preparation method of the cell lines and the experimental method were the same as those performed in Example 1.
Molecule `COC(=O)Nc1nc2cc(Sc3ccc(N4CCC(O)CC4)nc3)ccc2[nH]1` [Formula 1-4, Methyl (5-((6-(4-hydroxypiperidin-1-yl)pyridin-3-yl)thio)-1H-benzo[d]imidazol-2-yl)carbamate] has an IC50 of 135 nM.
`COC(=O)Nc1nc2cc(Sc3ccc(N4CCOCC4)c(F)c3)ccc2[nH]1` [Formula 1-2, Methyl (5-((3-fluoro-4-morpholinophenyl)thio)-1H-benzo[d]imidazol-2-yl)carbamate] was tested, and the IC50 was 174 nM.
Molecule `COC(=O)Nc1nc2cc(Sc3ccc(N4CCC(N5CCOCC5)CC4)cc3)ccc2[nH]1` [Formula 1-1, Methyl (5-((4-(4-morpholinopiperidin-1-yl)phenyl)thio)-1H-benzo[d]imidazol-2-yl)carbamate] has an IC50 of 592 nM.
With `COC(=O)Nc1nc2cc(Sc3ccc(N4CCN(C)CC4)c(F)c3)ccc2[nH]1` [Formula 1-3, Methyl (5-((3-fluoro-4-(4-methylpiperazin-1-yl)phenyl)thio)-1H-benzo[d]imidazol-2-yl)carbamate] the IC50 was 583 nM.
